Test results published in patent US20050019746A1, “Apoptosis-related kinase/GPCRs” (EiRx Therapeutics Limited, priority 2003, published 2005).

Columns and labels:
Type in all cases: cell-based, human
[1] = system: U251 cells; test: 10-14 day Clonagenicity Assay (MTT), U251; conditions: U251, clonagenicity assay, dilution point of maximum toxicity
Procedure, shortened: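 U251 cells were seeded in a 96-well plate, left overnight to adhere at 37° C. in humidified 5% CO2, and serially diluted 1 in 2 from Column 1 to 6. They were transfected for 4 hrs with siRNA oligomers at 2 μg/ml, given fresh medium, changed again at 24 hrs, then incubated 10-14 days with weekly renewal. MTT conversion measured cell number; survival was expressed versus missense control.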

[2] = system: DU145 cells; test: 10-14 day Clonagenicity Assay (MTT), DU145; conditions: for percentage survival relative to the missense, n = 2: independent experiment n = 2, dilution point of maximum toxicity
Procedure, shortened: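 siRNA knockdown at 2 μg/ml (4 h transfection) in serially halved seed densities; cells grown 10-14 d at 37 °C, 5% CO2, then counted by MTT conversion. Values: mean % survival vs missense oligo at the dilution giving maximum toxicity.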

[3] = system: A549 cells; test: 10-14 day Clonagenicity Assay (MTT), A549; conditions: for percentage survival relative to the missense, n = 1: independent experiment n = 1, dilution point of maximum toxicity; for percentage survival relative to the missense, n = 3: independent experiment n = 3, dilution point of maximum toxicity
Procedure, shortened: (§1)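 Read-out is MTT conversion 10-14 days after siRNA transfection, expressed as average percentage viability relative to missense oligomer at the seed density of maximum toxicity. Oligomers were applied at 2 μg/ml for 4 hours to cells plated over six 1-in-2 dilutions. Cytotoxicity required reduced viability at two or more seed densities.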

[4] = system: SKOV3 cells; test: 10-14 day Clonagenicity Assay (MTT), SKOV3; conditions: for percentage survival relative to the missense, n = 2: independent experiment n = 2, dilution point of maximum toxicity; for percentage survival relative to the missense, n = 3: independent experiment n = 3, dilution point of maximum toxicity
Procedure, shortened: as §1

[5] = system: A498 cells; test: 10-14 day Clonagenicity Assay (MTT), A498; conditions: for percentage survival relative to the missense, n = 3: independent experiment n = 3, dilution point of maximum toxicity
Procedure, shortened: as §1

[6] = system: HCT15 cells; test: 10-14 day Clonagenicity Assay (MTT), HCT15; conditions: for percentage survival relative to the missense, n = 1: independent experiment n = 1, dilution point of maximum toxicity; for percentage survival relative to the missense, n = 2: independent experiment n = 2, dilution point of maximum toxicity
Procedure, shortened: as §1

[7] = independent experiment n = 1, dilution point of maximum toxicity

For “siRNA FLT4: sense GUACGGCAACCUCUCCAACtt, antisense GUUGGAGAGGUUGCCGUACtt (sense GUACGGCAACCUCUCCAACTT; antisense GUUGGAGAGGUUGCCGUACTT; chemistry not given here)”, the “percentage survival relative to the missense, n = 2” value ([1]; independent experiment n = 2) was 63%, the “percentage survival relative to the missense, n = 3” value ([1]; independent experiment n = 3) was 30.9% and the “percentage survival relative to the missense, n = 2” value [2] was 52.7%. The “percentage survival relative to the missense, n = 3” value ([2]; independent experiment n = 3, dilution point of maximum toxicity) was 32.6%, the “percentage survival relative to the missense, n = 1” value [3] was 45.4% and the “percentage survival relative to the missense, n = 3” value [3] was 28.7%. For the same substance, the “percentage survival relative to the missense, n = 2” value [4] was 61%, the “percentage survival relative to the missense, n = 3” value [4] was 56.5% and the “percentage survival relative to the missense, n = 3” value [5] was 10%. The “percentage survival relative to the missense, n = 1” value [6] was 64.5% and the “percentage survival relative to the missense, n = 2” value [6] was 48.1%.
With “siRNA EKI: siRNA duplex, sense GCACUGGAUCCAAAGCAUGtt, antisense CAUGCUUUGGAUCCAGUGCtt; same in Tables 9 and 11 (sense GCACUGGAUCCAAAGCAUGTT; antisense CAUGCUUUGGAUCCAGUGCTT; chemistry not given here)” the “percentage survival relative to the missense, n = 1” value ([1]; independent experiment n = 1) was 62.3%, the “percentage survival relative to the missense, n = 2” value [2] was 62.2% and the “percentage survival relative to the missense, n = 1” value [3] was 27.1%. For the same substance, the “percentage survival relative to the missense, n = 2” value ([3]; independent experiment n = 2, dilution point of maximum toxicity) was 30.9%, the “percentage survival relative to the missense, n = 3” value [3] was 49.1% and the “percentage survival relative to the missense, n = 1” value [4, 7] was 10.5%. For the same substance, the “percentage survival relative to the missense, n = 2” value [4] was 19.8%, the “percentage survival relative to the missense, n = 3” value [4] was 20.6% and the “percentage survival relative to the missense, n = 1” value [5, 7] was 21.6%. The “percentage survival relative to the missense, n = 3” value [5] was 15.4%, the “percentage survival relative to the missense, n = 1” value [6] was 63.5% and the “percentage survival relative to the missense, n = 2” value [6] was 60.6%.
